CC1(C)[C@@H](O)CC[C@]2(C)[C@H]3C(=O)C=C4[C@@H]5C[C@@](C)(C(=O)O)CC[C@]5(C)CC[C@@]4(C)[C@]3(C)CC[C@@H]12
solubility (mole fraction)
Settings | 278.15 K | 283.15 K | 288.15 K | 293.15 K | 298.15 K | 303.15 K | 308.15 K | 313.15 K | 318.15 K | 323.15 K
in 1,4-dioxane | – | – | 0.0277 | 0.0286 | 0.0298 | 0.031 | 0.0323 | 0.0335 | 0.0348 | 0.0366
in DMF | 0.0449 | 0.0478 | 0.051 | 0.0545 | 0.058 | 0.0615 | 0.0654 | 0.0692 | 0.0733 | 0.0777
in ethanol | 0.0109 | 0.0115 | 0.0121 | 0.0128 | 0.0134 | 0.0141 | 0.0147 | 0.0155 | 0.0163 | 0.0172
in isopropanol | 0.00911 | 0.00991 | 0.0108 | 0.0116 | 0.0124 | 0.0133 | 0.0142 | 0.0151 | 0.016 | 0.017
in water | 8.02e-08 | 9.91e-08 | 1.22e-07 | 1.5e-07 | 1.82e-07 | 2.2e-07 | 2.61e-07 | 3.17e-07 | 3.76e-07 | 4.49e-07

Source: BigSolDB 2.1
